US20090325314A1, “N-Methyl Scanning Mutagenesis” (UNIVERSITY OF SOUTHERN CALIFORNIA, priority 2008, published 2009)
Where no end group is shown, it is not given here. [ ]: non-standard residue; d: D form. NMeK = CN[C@@H](CCCCN)C(=O)O

Legend:
[1] = molecular target: T1, Gαi1 (Homo sapiens, UniProt P63096); experiment: R6A-1 competition/equilibrium binding; settings: relative to unmodified peptide
T1 construct: made in house; host or cells: cell-free TnT reticulocyte lysate system (Promega), T7 promoter
T1 sequence (P63096 whole entry): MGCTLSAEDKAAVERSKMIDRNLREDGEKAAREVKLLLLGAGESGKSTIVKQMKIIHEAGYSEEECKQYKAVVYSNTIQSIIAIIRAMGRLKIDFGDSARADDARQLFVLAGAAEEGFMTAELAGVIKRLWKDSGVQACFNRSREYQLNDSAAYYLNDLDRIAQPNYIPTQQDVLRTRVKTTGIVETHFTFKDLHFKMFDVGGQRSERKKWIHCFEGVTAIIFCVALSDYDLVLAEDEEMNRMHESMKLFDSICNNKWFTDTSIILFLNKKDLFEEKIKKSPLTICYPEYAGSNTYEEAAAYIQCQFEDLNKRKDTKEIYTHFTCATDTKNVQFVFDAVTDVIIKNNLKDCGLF
Description: FIG. 2. Relative Peptide Affinities. (A) Radiolabeled Gαi1 was incubated with immobilized, biotinylated R6A and varying concentrations of either R6A (▾), unmodified peptide (▴), or N-Me-K (♦) for 3 hr. at 4° C. The radiolabel bound was normalized to that which bound in the absence of competitor. The plotted values represent the mean of three experimental values and the error bars correspond to the standard deviation. (B) Experimentally determined binding data is shown above. The error is calculated based on the standard error of the mean (SEM) for the log IC50 using GraphPad 5.0.
R6A-1 Competition/Equilibrium Binding: R6A (MSQTKRLDDQLYWWEYL) and Bio-R6A (Bio-MSQTKRLDDQLYWWEYL) were synthesized by previously described methods. This peptide was immobilized to NeutrAvidin beads (Promega) using the manufacturer's instructions. Gαi1 was expressed using the TnT reticulocyte lysate system (T7 promoter, Promega). (250 ng) plasmid DNA and (25 μCi) L-35S-Met (MP Biomedicals) were used in an (25 μL) expression. […] Specific Activity was measured by TCA precipitation.
400 pmol immobilized R6A, and (100,000 cpm) Gαi1 were suspended in (1 mL) HBS-EP buffer. Varying quantities of free peptide (R6A, Unmodified peptide, or N-Me-K) were added. […] After the final wash, the immobilized sample was transferred to scintillation vials and analyzed by scintillation counting. […]

[2] = molecular target: T2, Gαi1·GDP (Homo sapiens, UniProt P63096); experiment: TnT pulldown binding of N-methyl peptide library; design: made in house; host or cells: cell-free TnT coupled transcription/translation system (Promega); cDNA clone from UMR cDNA Resource Center; settings: compared with unmodified peptide
T2 sequence (P63096 whole entry): as above
Description: Binding affinity of N-methyl peptide library: TnT pulldown experiments were carried out as described in [10] with some modifications. Human cDNA clones encoding G proteins with the pcDNA3.1+ vector (Invitrogen) were obtained from the UMR cDNA Resource Center (www.cdna.org). The DNA clones for Gαi1, and HRas were translated into 35S-Met labeled proteins using a TnT coupled transcription/translation system (Promega). Translation reactions were desalted using G-25 spin columns (GE Healthcare) and the translation yield was calculated by TCA precipitation. Equal amounts of each labeled subunit were added to (5 μL) neutravidin-agarose containing (2 nmol) pre-bound biotin labeled peptide in (1 mL) HBS-EP buffer. Control neutravidin-agarose beads were loaded with (d)-biotin (Anaspec). Binding reactions proceeded for 2 hrs at 4° C. followed by filtration and washing with HBS-EP. The matrix was analyzed by scintillation counting and the percent bound was determined by the matrix counts divided by the total counts as determined by TCA precipitation. Values were normalized to the percent bound of unmodified peptide.

[3] = molecular target: T2, Gαi1·GDP; settings: binding to Gαi1·GDP; literature value; cited from earlier work

With NNNNND[NMeK]LYWWEFL [N-Me-K] the ΔΔG ([1]; equilibrium competition with R6A) was -0.50 kcal/mol, the “enhanced binding (fold) by equilibrium competition using the R6A peptide” value ([1]; immobilized R6A, radiolabeled Gαi1, 3 hr at 4° C.) was 2.5 fold and the “peptide binding affinity to Gαi1·GDP (qualitative)” value [2] was “increased binding affinity”.

In the case of DKLYWWEFL, the Kd [3] is given as 200 nM.

For MSQTKRLDDQLYWWEYL [Compound R6A], the Kd [3] is listed as 60 nM.
